Entries after “also recorded” stand apart in the source; their conditions may differ.
How the values were obtained:
[1] = system: D-aminoacylase from the Defluvibacter sp. A131-3 strain; assay: Effects of inhibitor on D-aminoacylase activity (D-valine produced, HPLC); format: biochemical; details: for Effects of inhibitors on activity: each at 5 mmol/L; for Relative activity (%): inhibitor 5 mmol/L, 0.5 mol/L N-acetyl-D-valine, enzyme 500 U, 40° C., 1 day, no addition of inhibitor = 100%
Description: The detection was conducted at 230 nm. The column was analyzed at a temperature of 30° C. The enzymatic activity was evaluated in terms of the ratio between the area of the acetyl compound and the free compound, and the resolution rate was expressed as a […]

[2] = system: D-aminoacylase from the Defluvibacter sp. A131-3 strain; assay: Effects of metal ions on D-aminoacylase activity (D-valine produced, HPLC); format: biochemical; details: for Effects of metal ions on activity: each at 1 mmol/L; for Relative activity (%): metal ion 1.0 mmol/L, 0.5 mol/L N-acetyl-D-valine, enzyme 500 U, 40° C., 1 day, no metal addition = 100%
[3] = system: D-aminoacylase from the Defluvibacter sp. A131-3 strain; assay: Substrate specificity, acylase activity measurement using D-/L-amino acid oxidase chromogenic reagent; format: biochemical; details: for Relative activity (% in relation to Met): activity of N-acetyl-D-methionine = 100; for Relative activity (% in relation to Met) / Relative activity (% in relation to Val): 100 mmol/L substrate solution, pH 8, 37° C., 30 minutes; for Relative activity (% in relation to Val): activity of N-acetyl-D-valine = 100; for Substrate specificity: whether the enzyme acts on the substrate: D- or L-amino acid oxidase detection
Source text: (4) Substrate specificity: Substrate specificity of the acylase of the present invention was confirmed by using the following N-acetyl-D-amino acids and N-acetyl-L-amino acids as the substrate and combining therewith the D-amino acid oxidase or the L-amino acid oxidase. The acylase of the present invention acts on the following N-acetyl-D-amino acids but not on the N-acetyl-L-amino acids.
In the measurement of the reactivity with the L-amino acids, an oxidase for L-amino acids is used instead of the D-amino acid oxidase in the activity measurement as will be described below.
4. Substrate specificity was determined by an activity measurement method using the chromogenic reagents for the D- and L-amino acid oxidases as described above.

[4] = system: D-aminoacylase from Defluvibacter sp. A131-3 strain; assay: Production of D-valine by resolution of N-acetyl-D,L-valine (HPLC); format: biochemical; details: 15% aqueous N-acetyl-D,L-valine, enzyme 200 U/mL, 40° C.
Description: It was then confirmed that the strains that had been selected by the chromogenic process show rapid reduction of the N-acetyl-D-valine and increase of the D-valine in an amount corresponding to the reduction of the N-acetyl-D-valine.
By using 15% aqueous solution of N-acetyl-D,L-valine as a substrate, D-aminoacylase from Defluvibacter sp. A131-3 strain was added with in an amount of 200 U per 1 ml of the aqueous solution of the substrate, and the reaction was allowed to proceed at 40° C. for 3 days. The rate of D-valine production by resolution from the N-acetyl-D,L-valine was measured by the HPLC method described in Example 1 (2).

[5] = 30° C., 1 day
[6] = Isoelectric point by two-dimensional electrophoresis for denatured system; format: physicochemical, Defluvibacter sp. A131-3; details: calculated from mobility of 2D-protein isoelectric point markers
Description: (3) Isoelectric point: Isoelectric point is measured on the basis of two-dimensional electrophoresis process by two-dimensional electrophoresis for denatured system (using IPG tube gel “Daiichi” 4-10 and PAG Large “Daiichi” 2D-10/20 manufactured by Daiichi Pure Chemicals Co., Ltd.). The pI value of 5.3 is calculated from mobility of 2D-protein isoelectric point markers (2D-protein isoelectric point markers “Daiichi” manufactured by Daiichi Pure Chemicals Co., Ltd.).
3. Protein isoelectric point was measured on the bases of two-dimensional electrophoresis process by two-dimensional electrophoresis for denatured system (using IPG tube gel “Daiichi” 4-10 and PAG Large “Daiichi” 2D-10/20 manufactured by Daiichi Pure Chemicals Co., Ltd.). The pI value of the enzyme of the present invention calculated from the mobility of the pI values 5.1, 5.2, 5.3, 5.4, 5.7, 6.0, 6.2, 6.4, 6.5, 6.7, 6.8, 7.0, and 7.1 of the 2D-protein isoelectric point markers (2D-protein isoelectric point markers “Daiichi” manufactured by Daiichi Pure Chemicals Co., Ltd.) was 5.3.

[7] = Optimal temperature of the enzyme; format: biochemical, Defluvibacter sp. A131-3; details: pH 8, 30 minutes

Molecule | Relative activity (% in relation to Met) [3] [%] | Relative activity (% in relation to Val) [3] [%] | Substrate specificity: whether the enzyme acts on the substrate [3] | further results
O[C@H](CS)[C@H](O)CS (racemic) [Dithiothreitol, dithiothreitol] | – | – | – | Effects of inhibitors on activity [1]: inhibited; Relative activity (%) [1]: 38%
OCCS [2-mercaptoethanol] | – | – | – | Effects of inhibitors on activity [1]: inhibited
O.O.O.O.O.O.[Cl-].[Cl-].[Co+2] [Cobalt (II) chloride, cobalt (II) chloride hexahydrate] | – | – | – | Effects of metal ions on activity [2]: inhibited; Relative activity (%) [2]: 27%
O=C(O)CN(CCN(CC(=O)O)CC(=O)O)CC(=O)O [Ethylenediamine tetraacetic acid, ethylenediamine tetraacetic acid] | – | – | – | Relative activity (%) [1]: 112%
NC(=O)CI [Iodacetamide, iodacetamide] | – | – | – | Relative activity (%) [1]: 107%
N[C@@H](CS)C(=O)O [L-cysteine] | – | – | – | Effects of inhibitors on activity [1]: inhibited
O.O.O.O.[Cl][Mn][Cl] [Manganese chloride, manganese (II) chloride tetrahydrate] | – | – | – | Effects of metal ions on activity [2]: inhibited; Relative activity (%) [2]: 48%
CC(=O)N[C@H](CCC(=O)O)C(=O)O [N-Ac-D-Glu, N-acetyl-D-glutamic acid] | 0 | 0 | – | –
CC(=O)N[C@H](CC(C)C)C(=O)O [N-Ac-D-Leu, N-acetyl-D-leucine] | 555 | 73 | to some extent; also recorded: acting on | –
CSCC[C@@H](NC(C)=O)C(=O)O [N-Ac-D-Met, N-acetyl-D-methionine] | 100 | 13 | to some extent; also recorded: acting on | –
CC(=O)N[C@H](Cc1ccccc1)C(=O)O [N-Ac-D-Phe, N-acetyl-D-phenylalanine] | 37 | 4.8 | to some extent; also recorded: acting on | –
CC(=O)N[C@H](Cc1c[nH]c2ccccc12)C(=O)O [N-Ac-D-Trp, N-acetyl-D-tryptophan] | 1.1 | 0.2 | to some extent | Substrate specificity: whether the enzyme acts on the substrate ([3]; listed as N-acetyl-D-triptophan): acting on
CC(=O)N[C@H](Cc1ccc(O)cc1)C(=O)O [N-Ac-D-Tyr, N-acetyl-D-tyrosine] | 8.4 | 1.1 | to some extent; also recorded: acting on | –
CC(=O)N[C@@H](C(=O)O)C(C)C [N-Ac-D-Val, N-acetyl-D-valine] | 762 | 100 | acted most effectively; also recorded: acting on | –
CC(=O)N[C@@H](CCC(=O)O)C(=O)O [N-Ac-L-Glu, N-acetyl-L-glutamic acid] | 0 | 0 | – | –
CC(=O)N[C@@H](CC(C)C)C(=O)O [N-Ac-L-Leu, N-acetyl-L-leucine] | 0 | 0 | does not act on | –
CSCC[C@H](NC(C)=O)C(=O)O [N-Ac-L-Met, N-acetyl-L-methionine] | 0 | 0 | does not act on | –
CC(=O)N[C@@H](Cc1ccccc1)C(=O)O [N-Ac-L-Phe, N-acetyl-L-phenylalanine] | 0 | 0 | does not act on | –
CC(=O)N[C@@H](Cc1c[nH]c2ccccc12)C(=O)O [N-Ac-L-Trp, N-acetyl-L-tryptophan] | 0 | 0 | does not act on | –
CC(=O)N[C@@H](Cc1ccc(O)cc1)C(=O)O [N-Ac-L-Tyr, N-acetyl-L-tyrosine] | 0 | 0 | does not act on | –
CC(=O)N[C@H](C(=O)O)C(C)C [N-Ac-L-Val, N-acetyl-L-valine] | 0 | 0 | does not act on | Decomposition of the L-form by the enzyme [4]: not decomposed at all
CCN1C(=O)C=CC1=O [N-ethylmaleimide] | – | – | – | Relative activity (%) [1]: 100%
O.O.O.O.O.O.[Cl][Ni][Cl] [Nickel chloride, nickel chloride hexahydrate] | – | – | – | Effects of metal ions on activity [2]: inhibited; Relative activity (%) [2]: 20%
c1cnc2c(c1)ccc1cccnc12 [O-phenanthroline, o-phenanthroline] | – | – | – | Effects of inhibitors on activity [1]: inhibited; Relative activity (%) [1]: 53%; Relative activity (%) ([1]; listed as o-phenanthroline): less than 60%
[Cl-].[K+] [Potassium chloride, potassium chloride] | – | – | – | Relative activity (%) [2]: 92%
[Cl-].[Na+] [Sodium chloride, sodium chloride] | – | – | – | Relative activity (%) [2]: 99%
[Na+].[Na+].[O]=[Mo](=[O])([O-])[O-] [Sodium molybdate, sodium molybdate] | – | – | – | Relative activity (%) [2]: 105%
[Cl-].[Cl-].[Zn+2] [Zinc chloride, zinc chloride] | – | – | – | Effects of metal ions on activity [2]: inhibited; Relative activity (%) [2]: 31%
iron (III) chloride hexahydrate | – | – | – | Relative activity (%) [2]: 88%
the enzyme of the present invention: D-aminoacylase from the Defluvibacter sp. A131-3 strain obtained in Example 3; amino acid sequence of SEQ ID NO. 2 (protein, Defluvibacter sp.A131-3) MAKSFDLVIRNGRVVDPETGHDAIADVAVSGGQIVAVGPSLGAGKREIDATGLVVSPGFIDLHAHGQSIPADRMQAFDGVTTALELEVGSLPVARWYEQQQAGGRVLNYGTAAAWIFARKAVMIGMELDGRLAPIEMMGAGSDDMRWSVDAATAPQTDDIVRLTRQALEEGALGIGIPHGYAAGAGVKEMTRICELAAEFDRPTYTHIPYMSNIDPRSSVEAYVQLIGLAGATGAHMHICHLNSTSLRDVEDAARLIAKAQAQGLPITTEAYPYGTGSTVMSARFFIDSDFAERTGTGYDAIQVVSSGKRFENRDELVAARAETPEALVLWHYLDTDNPHDQRLLDVSVMYPGGAIASDAVPWSNPDGTLYTGEEWPLPADKTSHPRSAGTYTRFLAQWVREREAVPLVEAIAKCALIPAQIVERCSDVFRRKGRLQPGCDADIVIFDLESVQDRSTFEDMHLAADGMVHVLVNGEAVIANGELVRDARSGRAIRSTPR | – | – | – | Residual activity at pH 6 or pH 11 [5]: not 0%; pH at which the enzyme is most stable [5]: ~9 pH; Isoelectric point (pI value) [6]: 5.3; Optimal temperature [7]: 37 °C
